The results in this text go back to US10273442B1, “Device and method for concomitant ejection and suction of perfusate” (priority 2015, dated 2019).

Format in all cases: cell-based, rat
The subject of one test is RS cell in LIII of PrS. The test is described as follows: Action potential firing of PrS neurons on local application via CESOP, current-clamp in acute brain slices. The conditions noted are these: glutamate 100 μM, 3 min duration.
Test [1] relates to LII stellate cells in MEA. The test is described as follows: Spontaneous postsynaptic currents (sEPSCs, sIPSCs) in LII stellate cells of MEA after focal application of compounds to PrS via CESOP, voltage-clamp in acute brain slices. The note with it: for percentage reduction in sIPSC frequency following application of the drug: NBQX 10 μM focally to PrS; for average sIPSC frequency / average sEPSC amplitude / average sEPSC frequency: glutamate 100 μM then NBQX 10 μM focally to PrS, mean ±SEM; for average sIPSC frequency: holding 0 mV; for average sEPSC amplitude / average sEPSC frequency: holding -70 mV. As for the experimental part: (§1) Sprague-Dawley rats (male; n=11 epileptic, n=15 controls) from postnatal (P) days 40 to 88 were used in this study. All experiments were carried out in accordance with the National Institute of Health Guide for the Care and Use of Laboratory Animals and were approved by the Florida State University Institutional Animal Care and Use Committee. Rats were made epileptic according to previously described protocols for bringing up the pilocarpine model of TLE. Briefly, rats were treated with pilocarpine (P41, 141±2 g; 380 mg/kg i.p.) 20 min after atropine methylbromide (5 mg/kg i.p.). Diazepam (10 mg/kg i.p.) was administered 2 h after the onset of status epilepticus and repeated as needed. Following recovery from status epilepticus, rats were video monitored (40 h/wk) for spontaneous seizures. Animals used for electrophysiological experiments were confirmed epileptic, displaying frank spontaneous recurrent seizures scored 3 or greater on the Racine scale (Racine 1972) on two or more observations during the 40 h/wk video monitoring. Recordings from epileptic animals were made on average 39 days (P80) post status epilepticus (range: 25-47 days, P66-P88), with initial seizures observed between 5 and 29 days post status. Control groups consisted of naive rats that were on average P70 (range: P49-P91).
(§2) Rats were deeply anesthetized with urethane (1.5 g/kg ip) before being decapitated. Following decapitation, the brain was quickly removed from the skull before being placed in a chilled (4° C.) low-Ca^2+, low-Na^+“cutting solution” containing (in mM) 230 sucrose, 10 D-glucose, 26 NaHCO3, 2.5 KCl, 1.25 NaH2PO4, 10 MgSO4, and 0.5 CaCl2 equilibrated with a 95%-5% mixture of O2 and CO2. After removing the cerebellum and rostral half of the brain, a 10-15° semi-horizontal cut (in a ventral-caudal to dorsal-rostral plane) was made to the dorsal part of the cortex with respect to the horizontal plane (FIG. 2E). The cut dorsal surface of the brain was adhered to the cutting platform using cyanoacrylate glue. This cutting angle was chosen to increase the likelihood of preserving PrS projections to MEA in acute brain slices, because PrS projections tend to travel to the MEA in a lateroventral orientation. Semi-horizontal slices (400 μm) were prepared using a microslicer (VT1000S, Leica, Germany) in the chilled cutting solution and allowed to equilibrate in oxygenated artificial cerebrospinal fluid (aCSF) containing (in mM) 126 NaCl, 26 NaHCO3, 3 KCl, 1.25 NaH2PO4, 2 MgSO4, 2 CaCl2, 0.25 L-Glutamine, and 10 D-glucose (pH 7.4), first at 32° C. for 1 h and subsequently at room temperature before being transferred to the recording chamber.
(§3) Recordings were obtained at 32±1° C. from neurons in LII and LIII of MEA under Nomarski optics (Zeiss) using a visualized infrared setup (Hamamatsu) that enabled identification of their location within the various lamina. On average, 3.5±0.4 (range: 2-5) and 3.6±0.4 (range: 2-6) cells were recorded per animals in the control and epileptic groups respectively. Patch electrodes were pulled from borosilicate glass (1.5 mm outer diameter, 0.75 mm inner diameter, 3-6 MΩ). The internal solution for voltage-clamp experiments contained (in mM): 120 cesium gluconate, 1 MgCl2, 1 CaCl2, 11 CsCl, 10 HEPES, 2 NaATP, 0.3 NaGTP, 1 QX-314, 11 EGTA, and 20 biocytin (pH 7.3, corrected with Cs-OH; final osmotic concentration, 290 mOsm). The internal solution for current-clamp experiments contained (in mM): 105 potassium gluconate, 30 KCl, 10 HEPES, 10 phosphocreatine, 4 MgATP, 0.3 GTP (pH adjusted to 7.3 with KOH; final osmotic concentration, 300 mOsm).
(§4) Recording conditions were the same for control and epileptic animals. Slices were maintained in oxygenated (95% O2-5% CO2) aCSF, flowing at a rate of 2 ml/min. Drugs were applied focally to superficial PrS via the CESOP technique (FIGS. 4A-4E, described below). […]

Test [2] has as its system LIII pyramidal neurons in MEA. The test is described as follows: Spontaneous postsynaptic currents (sEPSCs, sIPSCs) in LIII pyramidal neurons of MEA after focal application of compounds to PrS via CESOP, voltage-clamp in acute brain slices. The protocol: as §1, §2, §3, §4
[3] abbreviates: epileptic rats (pilocarpine model of TLE).
Where [4] appears, read: epileptic conditions, glutamate 100 μM then NBQX 10 μM focally to PrS, holding 0 mV, mean ±SEM.

“Also recorded” adds a separate entry of the source.

Consider `N[C@@H](CCC(=O)[O-])C(=O)[O-].[Na+].[Na+]` [glutamate, Sodium glutamate], for which the “action potential discharge of PrS neurons in response to local application” value with RS cell in LIII of PrS was “sustained action potential discharge; also recorded: reliably evokes action potential firing”.

For the compound `NS(=O)(=O)c1cccc2c1c([N+](=O)[O-])cc1[nH]c(=O)c(=O)[nH]c12` [NBQX, 2,3-dioxo-6-nitro-1,2,3,4-tetrahydrobenzo[f]quinoxaline-7-sulfonamide], the “percentage reduction in sIPSC frequency following application of the drug” value in test [1] (control animals) is reported as 22%; in test [1] (epileptic rats) it was 11%. Moreover, the “average sIPSC frequency” value in test [1] (control rats) is 11.1±1.4 Hz; in test [1] (setting [3]), 7.5±1 Hz; in test [2] (setting [4]), 6.8±0.9 Hz. In addition, the “average sEPSC amplitude” value was found to be 18±1 pA in test [1] (control rats) and 21±2 pA in test [1] (setting [3]). Besides, the “average sEPSC frequency” value in test [1] (control rats) is 5.6±1 Hz; in test [1] (setting [3]), 4.9±0.8 Hz; in test [2] (control rats, glutamate 100 μM then NBQX 10 μM focally to PrS, holding -70 mV, mean ±SEM) it was 4.6±0.6 Hz. The compound also yielded a sIPSC frequency in test [2] (control animals, glutamate 100 μM then NBQX 10 μM focally to PrS, holding 0 mV, mean ±SEM) of 4.5±0.3 Hz. Also, in test [2] (control conditions, NBQX 10 μM focally to PrS), the “reduction in sEPSC frequency following application of NBQX” value stood at 30%. In addition, the “average sIPSC amplitude” value in test [2] (setting [4]) is 30±2 pA. This compound also registered a sEPSC frequency in test [2] (epileptic rats (pilocarpine model of TLE), glutamate 100 μM then NBQX 10 μM focally to PrS, holding -70 mV, mean ±SEM) of 10.5±2 Hz.
